# Read-outs that look alike come from different tables or passages of the source.
# How the values were obtained:
# HIV-1NL4-3 = experiment: Two-drug combination anti-HIV assay in MT4 cells, MacSynergy II analysis; format: cell-based; parameters: Antiviral Activity Synergy volume / Antiviral Activity Antagonism volume: unit not given here
# Procedure: (§1) This two-drug combination analysis study was performed using the Prichard and Shipman MacSynergy II three dimensional model for statistical evaluation of combination anti-HIV assays. Using a standardized microtiter plate format, each combination assay was performed in MT4 cells acutely infected with HIV-1NL4-3.
# (§2) MT4 cells (obtained from the NIH AIDS Research and Reference Reagent Program) were passaged in T-75 flasks prior to use in the antiviral assay. On the day preceding the assay, the cells were split 1:2 to assure they were in an exponential growth phase at the time of infection. Total cell and viability quantification was performed using a hemacytometer and trypan blue exclusion. Cells with greater than 95% cell viability were utilized in the assay. The cells were re-suspended in tissue culture medium and added to the drug-containing microtiter plates in a volume of 110 μL and at a seeding density of 5.0×10^3 cells/well.
# (§3) Combination antiviral efficacy was evaluated on three identical assay plates (i.e., triplicate measurements) that included cell control wells (cells only) and virus control wells (cells plus virus). Combination cytotoxicity was evaluated in parallel on two identical assay plates (i.e., duplicate measurements) that included cell control wells.
# MT4 cells = experiment: Two-drug combination cytotoxicity in uninfected MT4 cells, MacSynergy II analysis
# Procedure: as §1, §2, §3
# [1] = two-drug combination with the pivalate fumarate, uninfected MT4 cells
# [2] = two-drug combination with the pivalate fumarate, HIV-1NL4-3 in MT4 cells
# [3] = two-drug combination with the pivalate fumarate, MT4 cells infected with HIV-1NL4-3
Compound,Interpretation Antiviral (HIV-1NL4-3; [2]),Antiviral Activity Antagonism volume (HIV-1NL4-3; [3]),Antiviral Activity Synergy volume (HIV-1NL4-3; [3]),also measured
"C[C@H](Cn1cnc2c(N)ncnc21)OCP(=O)(O)O [Tenofovir, 9-R-[(2-phosphonomethoxy)propyl]adenine]",–,–,–,Antiviral Activity Antagonism volume (HIV-1NL4-3): 79.0/−7.08; Antiviral Activity Synergy volume (HIV-1NL4-3): 79.0/−7.08; Cytotoxicity Antagonism volume (MT4 cells): 0/0; Cytotoxicity Synergy volume (MT4 cells): 0/0; Interpretation Cytotoxicity (MT4 cells; [1]): Additive
C[C@@H]1CCO[C@H]2Cn3cc(C(=O)NCc4ccc(F)cc4F)c(=O)c(O)c3C(=O)N12 [Dolutegravir],Additive,−4.46,17.9,–
Cc1ccnc2c1NC(=O)c1cccnc1N2C1CC1 [Nevirapine],Additive,−9.09,47.6,–
Cc1nnc(C(=O)NC(C)(C)c2nc(C(=O)NCc3ccc(F)cc3)c(O)c(=O)n2C)o1 [Raltegravir],–,–,–,Antiviral Activity Antagonism volume (HIV-1NL4-3): 1.61/−2.72; Antiviral Activity Synergy volume (HIV-1NL4-3): 1.61/−2.72; Interpretation Antiviral (HIV-1NL4-3): Additive; Cytotoxicity Antagonism volume (MT4 cells; [1]): −4.70; Interpretation Cytotoxicity (MT4 cells; [1]): Additive
CC(C)CN(C[C@@H](O)[C@H](Cc1ccccc1)NC(=O)O[C@H]1CO[C@H]2OCC[C@H]21)S(=O)(=O)c1ccc(N)cc1 [Darunavir],–,–,–,Antiviral Activity Antagonism volume (HIV-1NL4-3): 188/−36.5; Antiviral Activity Synergy volume (HIV-1NL4-3): 188/−36.5
COC(=O)N[C@H](C(=O)N[C@@H](Cc1ccccc1)[C@@H](O)CN(Cc1ccc(-c2ccccn2)cc1)NC(=O)[C@@H](NC(=O)OC)C(C)(C)C)C(C)(C)C [Atazanavir],Additive,−3.50,39.1,–
O=C1Nc2ccc(Cl)cc2[C@@](C#CC2CC2)(C(F)(F)F)O1 [Efavirenz],–,−5.92,79.0,–
Tenofovir alafenamide hemifumarate [TAF],Additive,−47.1,41.2,Cytotoxicity Antagonism volume (MT4 cells; [1]): 0/0; Cytotoxicity Synergy volume (MT4 cells; [1]): 0/0; Interpretation Cytotoxicity (MT4 cells; [1]): Additive
Nc1nc(=O)n([C@@H]2CS[C@H](CO)O2)cc1F [Emtricitabine],–,−8.75,98.8,–
COc1cc2c(cc1Cc1cccc(Cl)c1F)c(=O)c(C(=O)O)cn2[C@H](CO)C(C)C [Elvitegravir],–,0,67.3,–
CC(C)c1nc(CN(C)C(=O)N[C@@H](CCN2CCOCC2)C(=O)N[C@H](CC[C@H](Cc2ccccc2)NC(=O)OCc2cncs2)Cc2ccccc2)cs1 [Cobicistat],Additive,−6.12,0,–

# Source: US12090163B2, “Pharmaceutical compositions” (CIPLA LIMITED, priority 2017, dated 2024)
